From patent US20230218707A1, “NOVEL PEPTIDE INHIBITORS OF BETA-LACTAMASE AGAINST ANTIBIOTIC RESISTANCE” (priority 2020, published 2023)
Residues, ends and D or L forms follow the SMILES beside them.

Legend:
[1] = system: MRSA strain NRS384; test: Growth of MRSA strain NRS384 with peptide and amoxicillin; format: cell-based, Staphylococcus aureus
Method: In order to assess the potency of the peptides against MRSA, the peptides were tested on MRSA strain NRS384, which is widely used for studying MRSA infections.

[2] = molecular target: T1, PBP2a (Staphylococcus aureus, UniProt P07944); test: In vitro binding assay, Bocillin FL binding to PBP2a (SDS-PAGE fluorescence); details: preliminary data, FIG. 3A
T1 construct: purchased RayBiotech, GA
T1 sequence (P07944 whole entry): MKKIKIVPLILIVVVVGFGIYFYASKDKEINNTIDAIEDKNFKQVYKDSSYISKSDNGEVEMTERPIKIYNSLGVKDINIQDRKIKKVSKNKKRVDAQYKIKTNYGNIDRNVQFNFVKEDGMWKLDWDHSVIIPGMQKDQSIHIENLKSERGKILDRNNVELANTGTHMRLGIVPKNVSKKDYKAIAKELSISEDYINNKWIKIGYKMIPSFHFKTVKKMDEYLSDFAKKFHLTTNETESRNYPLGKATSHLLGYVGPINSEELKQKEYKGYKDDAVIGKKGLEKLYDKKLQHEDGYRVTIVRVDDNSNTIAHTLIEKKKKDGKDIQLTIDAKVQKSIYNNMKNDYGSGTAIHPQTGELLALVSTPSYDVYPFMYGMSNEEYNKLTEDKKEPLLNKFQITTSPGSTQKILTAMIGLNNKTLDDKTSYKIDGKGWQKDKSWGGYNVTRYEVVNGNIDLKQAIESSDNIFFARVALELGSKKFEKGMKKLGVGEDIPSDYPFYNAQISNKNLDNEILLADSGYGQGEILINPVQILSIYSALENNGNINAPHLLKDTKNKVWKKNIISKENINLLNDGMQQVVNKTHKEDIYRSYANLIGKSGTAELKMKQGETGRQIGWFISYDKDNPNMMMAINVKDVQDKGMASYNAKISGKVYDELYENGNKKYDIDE
From the text: More peptides were designed to target both PBP2a and β-lactamase which are predicted to enhance amoxicillin killing of MRSA. […] The top 6 best-scored peptides were synthesized. […] In the absence of peptide competitors, Bocillin FL bound to PBP2a and then gave rise to fluorescence signal when the protein was resolved on an SDS-PAGE gel.

[3] = system: ATCC35218 cells; test: Confocal microscopy of uptake of fluorescent labeled peptide; format: cell-based, E. coli; details: 5(6)-FAM label at N-terminus
Method: To confirm that the CPP enhanced the E. coli uptake of the peptide, the BP100-T61-25 peptide was labeled with 5(6)-FAM [5-(and-6)-Carboxyfluorescein at the N-terminus and incubated with ATCC35218 cells. […] It is noted that significant enhancement of amoxicillin potency against resistant bacteria can be achieved by linking CPPs to peptide inhibitor.

[4] = system: Escherichia coli ATCC 35218; format: cell-based; details: for enhancement of amoxicillin killing of ATCC35218: 32 μg/ml amoxicillin, FIG. 1 / FIG. 2A
Method: The activity of peptide inhibitors was assessed in Escherichia coli ATCC 35218 strain, which is a TEM-1 producing control E. coli strain commonly used in testing β-lactamase inhibitor activity, and which is resistant to amoxicillin by expressing TEM-1 β-lactamase. Peptide inhibitors that can inhibit TEM-1 function will lower minimum inhibitory concentration (MIC) of the amoxicillin against the resistant bacteria, which will be used to measure the potency of peptide inhibitors in bacteria. Bacterial susceptibility to amoxicillin and β-lactamase inhibitors were determined by broth microtiter dilution (BMD) according to the Clinical and Laboratory Standards Institute (CLSI) methodology. The tests were done using checkboard method with different amoxicillin concentrations (0-128 μg/ml). For the control group, clavulanic acid concentration was about 4 μg/ml.

[5] = system: MRSA strain (JE2); test: Growth of MRSA strain JE2 with peptide and ceftizoxime; format: cell-based, Staphylococcus aureus; details: JE2, 8 μg/ml ceftizoxime (FIG. 4)
Method: Some of the MRSA strains also developed resistance against cephalosporin, which are improved β-lactams developed to overcome some of the early penicillin resistance. BP100-T61-25's synergy with Ceftizoxime, which is a third generation cephalosporin on a MRSA strain (JE2) that is resistant to cephalosporin, was tested.

[6] = system: NRS384; test: Serial passage resistance selection of NRS384; format: cell-based, Staphylococcus aureus
[7] = molecular target: TEM-1 (Escherichia coli, UniProt P62593); details: literature peptide, Huang et al. 2003; cited from earlier work
Sequence of TEM-1 (P62593 24-286 limits assumed): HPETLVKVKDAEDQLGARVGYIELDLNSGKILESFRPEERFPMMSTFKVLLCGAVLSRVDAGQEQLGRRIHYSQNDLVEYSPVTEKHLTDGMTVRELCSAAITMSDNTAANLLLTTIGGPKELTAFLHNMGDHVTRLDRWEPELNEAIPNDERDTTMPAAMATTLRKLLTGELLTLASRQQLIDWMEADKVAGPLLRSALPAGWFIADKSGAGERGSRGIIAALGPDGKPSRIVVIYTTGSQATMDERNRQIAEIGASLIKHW

For `CC1(C)S[C@@H]2[C@H](NC(=O)[C@H](N)c3ccc(O)cc3)C(=O)N2[C@H]1C(=O)O` [amoxicillin, reference compound], the MIC ([1]; Staphylococcus aureus) was over 256 µg/mL.

In the case of `CC(C)C[C@H](NC(=O)[C@H](Cc1ccc(O)cc1)NC(=O)[C@@H](NC(=O)[C@@H](N)CCCCN)[C@@H](C)O)C(=O)N[C@@H](C)C(=O)N[C@@H](CCC(N)=O)C(=O)N[C@@H](C)C(=O)N[C@@H](C)C(=O)N[C@@H](C)C(=O)N[C@H](C(=O)NCC(=O)O)[C@@H](C)O` [Peptide T61-25], the “inhibition of Bocillin FL binding to PBP2a” value (“inhibition … to PBP2a” below) [2] is reported as “inhibitory effect”.

In the case of `CC[C@H](C)[C@H](NC(=O)[C@H](CCCCN)NC(=O)[C@H](CCCCN)NC(=O)[C@H](Cc1ccccc1)NC(=O)[C@H](CC(C)C)NC(=O)[C@H](CCCCN)NC(=O)[C@@H](N)CCCCN)C(=O)N[C@@H](CC(C)C)C(=O)N[C@@H](CCCCN)C(=O)N[C@@H](Cc1ccc(O)cc1)C(=O)N[C@@H](CC(C)C)C(=O)N[C@@H](CCCCN)C(=O)N[C@H](C(=O)N[C@@H](Cc1ccc(O)cc1)C(=O)N[C@@H](CC(C)C)C(=O)N[C@@H](C)C(=O)N[C@@H](CCC(N)=O)C(=O)N[C@@H](C)C(=O)N[C@@H](C)C(=O)N[C@@H](C)C(=O)N[C@H](C(=O)NCC(=O)O)[C@@H](C)O)[C@@H](C)O` [BP100-T61-25] (H-KKLFKKILKYLKTYLAQAAATG-OH; N-terminus and C-terminus assumed), the “peptide concentration enhancing amoxicillin killing of MRSA” value ([1]; NRS384, amoxicillin 32 μg/ml, FIG. 3C) is reported as 16 µg/mL, the “peptide internalization into E. coli cells” value [3] is reported as “peptide internalization into E. coli cells was observed” and the “enhancement of amoxicillin killing of ATCC35218” value (shortened to “enhancement … of ATCC35218”) [4] is reported as “Marked enhancement of amoxicillin (32 μg/ml) killing of bacteria”. For the same compound, the “peptide dose close to the MIC” value ([4]; ATCC 35218) was about 8 µg/mL, the “peptide concentration with strong inhibition of bacterial growth” value ([4]; ATCC35218, with 32 μg/ml amoxicillin) was 8 to 16 µg/mL and the “peptide concentration significantly inhibiting bacterial growth” value ([4]; ATCC35218, without amoxicillin) was 16 µg/mL. The “peptide concentration significantly enhancing ceftizoxime's killing of JE2” value [5] was 8 µg/mL and the “peptide concentration sufficient to inhibit bacterial growth after serial passage” value ([6]; NRS384 passages 12-15, with 32 μg/ml amoxicillin) was 16 µg/mL.

`O=C(O)c1cn(C2CC2)c2cc(N3CCNCC3)c(F)cc2c1=O` [ciprofloxacin, reference compound] gave an MIC ([6]; Staphylococcus aureus, NRS384, read-out: bacterial MIC to ciprofloxacin after serial passage) of over 256 µg/mL.

For `C[C@H](NC(=O)[C@H](Cc1ccccc1)NC(=O)[C@H](CC(=O)O)NC(=O)CNC(=O)[C@H](CO)NC(=O)CNC(=O)CN)C(=O)N[C@@H](CCCNC(=N)N)C(=O)N[C@@H](CO)C(=O)N[C@@H](CO)C(=O)N[C@@H](Cc1ccc(O)cc1)C(=O)O` [Peptide T66-12], the “inhibition … to PBP2a” value [2] was “inhibitory effect”.

In the case of `CC(C)C[C@H](NC(=O)[C@H](C)NC(=O)[C@H](CCCNC(=N)N)NC(=O)[C@@H](NC(=O)[C@@H](NC(=O)[C@H](Cc1ccccc1)NC(=O)[C@@H](NC(=O)[C@@H](N)CCCCN)[C@@H](C)O)C(C)C)C(C)C)C(=O)N[C@@H](C)C(=O)N[C@@H](CO)C(=O)O` [Peptide T63-07], the “inhibition … to PBP2a” value [2] is reported as “inhibitory effect”.

For RRGHYY-NH2, the Ki [7] is given as 136 µM.

In the case of “KTFVVRALASCKFFKFFKFF [Peptide T63-07-CPP, T63-07 conjugated with CPP]”, the “peptide concentration significantly enhancing amoxicillin inhibition of MRSA growth” value ([1]; NRS384, amoxicillin 32 and 64 μg/ml, FIG. 3B) is reported as 32 µg/mL.

In the case of “KFFKFFKFFKKTYLAQAAATG [Peptide T63-1, cell wall-permeating peptide attached to peptide T61-25]”, the “enhancement … of ATCC35218” value [4] is reported as “Significant enhancement of amoxicillin killing of bacteria” and the “enhancement of amoxicillin potency compared with clavulanate” value ([4]; ATCC35218, FIG. 1) is reported as “enhanced amoxicillin potency significantly more than clavulanate”.

For “CFFKDELKTYLAQAAATG [Peptide T63-2, cell wall-permeating peptide attached to peptide T61-25]”, the “enhancement … of ATCC35218” value [4] was “moderate effect at enhancing amoxicillin potency”.
